Experimental data: PMC9007350, “Aurintricarboxylic acid is a canonical disruptor of the TAZ-TEAD transcriptional complex” (PLoS ONE, 2022)

Molecular target: T1, TAZ-TEAD complex (human TAZ (23-57) probe, human TEAD4 (217-434)) (Homo sapiens, UniProt Q15561)
T1 construct: made in house
Test: TAZ-TEAD fluorescence polarization assay
Type: binding
Conditions: comparison with ATA, S2 Fig
Method: Human YAP (61–100), human TAZ (23–57) and mouse Vgll1 (26–51) peptide probes were used; all the probes had carboxyfluorescein labels. Human TEAD4 (217–434) was used in the assay at a concentration of 350 nM and the peptide probe concentration was 25 nM. Disruptors were titrated at concentrations ranging from 0–150 μM to the probe-TEAD complex, and the mixtures were incubated at 25°C for 20 min. Then, polarization measurements were taken using a Victor3 (PerkinElmer) plate reader.

T1 sequence (Q15561 217-434, one chain of several): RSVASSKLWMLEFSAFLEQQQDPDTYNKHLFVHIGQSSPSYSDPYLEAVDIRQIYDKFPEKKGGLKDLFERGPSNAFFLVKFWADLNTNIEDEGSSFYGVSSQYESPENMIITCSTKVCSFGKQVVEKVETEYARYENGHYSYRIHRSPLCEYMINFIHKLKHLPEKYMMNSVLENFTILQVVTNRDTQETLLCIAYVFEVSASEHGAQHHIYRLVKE

- effect in the TAZ-TEAD FP assay (in words): did not display an effect
Substance: verteporfin
